Measurements taken from ChEMBL document CHEMBL1949519.
The source made the active and inactive calls. The rule behind the calls is not given here.

Key:
Assay type in all cases: cell-based
Settings in all cases: COS-1
[1] = target: T1, Long-wave-sensitive opsin 1 (Homo sapiens) (UniProt P04000); test: Agonist activity at human red cone opsin expressed in COS1 cells assessed as activation of transducer at 20 uM by radioactive filter binding assay
T1 sequence (whole entry): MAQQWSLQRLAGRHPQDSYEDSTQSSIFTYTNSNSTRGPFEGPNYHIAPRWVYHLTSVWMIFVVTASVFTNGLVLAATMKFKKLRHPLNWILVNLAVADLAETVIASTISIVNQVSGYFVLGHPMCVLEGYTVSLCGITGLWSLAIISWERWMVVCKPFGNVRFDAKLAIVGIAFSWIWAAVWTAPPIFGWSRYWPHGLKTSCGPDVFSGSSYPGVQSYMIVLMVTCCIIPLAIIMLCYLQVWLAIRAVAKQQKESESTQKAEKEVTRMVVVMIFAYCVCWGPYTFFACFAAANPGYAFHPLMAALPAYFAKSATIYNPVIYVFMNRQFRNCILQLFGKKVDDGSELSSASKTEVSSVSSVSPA

[2] = target: T1, Long-wave-sensitive opsin 1 (Homo sapiens); test: Inverse agonist activity at human red cone opsin expressed in COS1 cells assessed as transducer activity at 2 mM by radioactive filter binding assay
[3] = target: T1, Long-wave-sensitive opsin 1 (Homo sapiens); test: Inverse agonist activity at human red cone opsin expressed in COS1 cells assessed as transducer activity at 200 uM by radioactive filter binding assay
[4] = target: T1, Long-wave-sensitive opsin 1 (Homo sapiens); test: Inverse agonist activity at human red cone opsin expressed in COS1 cells assessed as transducer activity at 20 uM by radioactive filter binding assay

Compound: CC1=C(/C=C/C(C)=C/C=C/C(C)=C/C=C/C=O)C(C)(C)CCC1
- Activity [1]: inactive

Compound: CC1CCCC(C)C1 (stereo not given)
- Activity [2]: Active

Compound: C1CCCCC1
- Activity [2]: inactive

Compound: CC1=C(C=O)C(C)(C)CCC1
- Activity [3]: Active

Compound: CC1=C(/C=C/C(C)=C\C=C\C=O)C(C)(C)CCC1
- Activity [4]: Active
